# In patent US20260022142A1, “MACROCYCLIC IMMUNOMODULATORS” (Bristol-Myers Squibb Company, priority 2022, published 2026):
# Numbered stars: 1 amine (or outer) side, 2 acyl side, 3 side chain; on linkers, the order of the positions; unused ones are H or OH. Bridge positions count the residues as written; N and C are the ends. Square brackets hold non-standard residues; d marks the D form. Peptide text beside a SMILES is read from it. * marks the point of attachment. ξ: configuration not given here. X3 = CC(C)(F)C(=N)NCCC[C@H](N[*:1])C(=O)[*:2]; X7 = N=C(NCCC[C@H](N[*:1])C(=O)[*:2])C1CC1; Bip = N[C@@H](Cc1ccc(-c2ccccc2)cc1)C(=O)O; Phe(3-Me) = Cc1cccc(C[C@H](N)C(=O)O)c1; Cyclopropanecarbonyl = O=C(C1CC1)*; Lys(Me2) = CN(C)CCCC[C@H](N)C(=O)O; Pyrazinecarbonyl = O=C(c1cnccn1)*; hArg = N=C(N)NCCCC[C@H](N)C(=O)O; 4Pal = N[C@@H](Cc1ccncc1)C(=O)O; Cha = N[C@@H](CC1CCCCC1)C(=O)O; Cit = NC(=O)NCCC[C@H](N)C(=O)O; Thr(3ξ) = CC(O)[C@H](N)C(=O)O; 12Ado = NCCCCCCCCCCCC(=O)O; hSer = N[C@@H](CCO)C(=O)O; Carboxymethyl = O=C(O)C*; Orn = NCCC[C@H](N)C(=O)O; Aun = NCCCCCCCCCCC(=O)O; Dab = NCC[C@H](N)C(=O)O; Dap = NC[C@H](N)C(=O)O; X11 = CC(C)(F)C(=O)*
# Target: T1, PD-1/PD-L1 interaction (PE-labeled human PD-L1-Ig binding to Jurkat cell line over-expressing human PD-1) (Homo sapiens, UniProt Q15116)
# T1 construct: expressed in transfected cells; host or cells: Jurkat
# Assay: Jurkat-PD-1 Cell Binding High-Content Screening Assay (CBA)
# Type: cell-based
# Details: Jurkat cell line over-expressing human PD-1; PE-labeled PD-L1-Ig 20 nM final; read-out: Jurkat hPD1-PDL1 IC50
# Procedure, shortened: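 Binding of fluorescent PD-L1-Ig (20 nM final) to Jurkat-PD-1 cells was measured by automated imaging after 1 h, following a 2 h compound pre-treatment at 37° C.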
# T1 sequence (Q15116 25-288): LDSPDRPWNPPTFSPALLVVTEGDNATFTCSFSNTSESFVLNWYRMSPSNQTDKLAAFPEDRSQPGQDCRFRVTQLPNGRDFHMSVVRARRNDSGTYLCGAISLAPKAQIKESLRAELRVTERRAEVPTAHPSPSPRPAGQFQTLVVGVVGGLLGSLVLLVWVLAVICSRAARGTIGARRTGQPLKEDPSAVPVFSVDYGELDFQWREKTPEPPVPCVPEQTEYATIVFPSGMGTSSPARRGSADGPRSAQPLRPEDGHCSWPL
row,SMILES,IC50
1,Cc1cccc(C[C@@H]2NC(=O)[C@H](CC(=O)O)NC(=O)[C@H](Cc3ccc(OCC(=O)O)cc3)NC(=O)[C@H](CCCCNC(=N)N)NC(=O)CSC[C@@H](C(=O)N[C@@H](CCCN)C(=O)N[C@@H](CO)C(=O)NCCCCCCCCCCCC(=O)O)NC(=O)[C@H](CO)NC(=O)[C@H](C(C)C)NC(=O)[C@H](CC3CCCCC3)NC(=O)[C@H](CCN)NC(=O)[C@@H](CC(C)C)NC(=O)[C@H](CCCN)NC(=O)[C@H](CCCNC(=N)N)NC(=O)[C@H](Cc3ccc(-c4ccccc4)cc3)NC(=O)[C@H](C(C)C)NC2=O)c1 [Compound 3576] ({CH2CO}-[hArg]Y(Carboxymethyl)D[Phe(3-Me)]V[Bip]R[Orn][dL][Dab][Cha]VSC[Orn]S[12Ado]-OH; thioether N-14),0.0173 µM
2,CC(=O)NCCCC[C@@H]1NC(=O)CSC[C@@H](C(=O)N[C@@H](CCCN)C(=O)N[C@@H](CO)C(=O)NCCCCCCCCCCCC(=O)O)NC(=O)[C@H](CO)NC(=O)[C@H](C(C)C)NC(=O)[C@H](CC2CCCCC2)NC(=O)[C@H](CCCNC(=N)N)NC(=O)[C@@H](CC(C)C)NC(=O)[C@H](CCCN)NC(=O)[C@H](CCCNC(=N)N)NC(=O)[C@H](Cc2ccc(-c3ccccc3)cc2)NC(=O)[C@H](C(C)C)NC(=O)[C@H](Cc2cccc(C)c2)NC(=O)[C@H](CC(=O)O)NC(=O)[C@H](Cc2ccc(OCC(=O)O)cc2)NC1=O [Compound 3577] ({CH2CO}-K(Ac)Y(Carboxymethyl)D[Phe(3-Me)]V[Bip]R[Orn][dL]R[Cha]VSC[Orn]S[12Ado]-OH; thioether N-14),0.0311 µM
3,Cc1cccc(C[C@@H]2NC(=O)[C@H](CC(=O)O)NC(=O)[C@H](Cc3ccc(OCC(=O)O)cc3)NC(=O)[C@H](CCCCNC(=N)N)NC(=O)CSC[C@@H](C(=O)N[C@@H](CCCN)C(=O)N[C@@H](CO)C(=O)NCCCCCCCCCCCC(=O)O)NC(=O)[C@H](CO)NC(=O)[C@H](C(C)C)NC(=O)[C@H](CC3CCCCC3)NC(=O)[C@H](CCN)NC(=O)[C@@H](CC(C)C)NC(=O)[C@H](CCCNC(=N)N)NC(=O)[C@H](CCCNC(=N)C3CC3)NC(=O)[C@H](Cc3ccc(-c4ccccc4)cc3)NC(=O)[C@H](C(C)C)NC2=O)c1 [Compound 3578] ({CH2CO}-[hArg]Y(Carboxymethyl)D[Phe(3-Me)]V[Bip][X7]R[dL][Dab][Cha]VSC[Orn]S[12Ado]-OH; thioether N-14),0.0215 µM
4,Cc1cccc(C[C@@H]2NC(=O)[C@H](CC(=O)O)NC(=O)[C@H](Cc3ccc(OCC(=O)O)cc3)NC(=O)[C@H](CCCCNC(=N)N)NC(=O)CSC[C@@H](C(=O)N[C@@H](CCN)C(=O)NCCCCCCCCCCC(=O)O)NC(=O)[C@H](C(C)O)NC(=O)[C@H](C(C)C)NC(=O)[C@H](CC3CCCCC3)NC(=O)[C@H](CCN)NC(=O)[C@@H](CC(C)C)NC(=O)[C@H](CCCN)NC(=O)[C@H](CCCNC(=N)C(C)(C)F)NC(=O)[C@H](Cc3ccc(-c4ccccc4)cc3)NC(=O)[C@H](Cc3ccc(O)cc3)NC2=O)c1 (stereo partly drawn) [Compound 3579] ({CH2CO}-[hArg]Y(Carboxymethyl)D[Phe(3-Me)]Y[Bip][X3][Orn][dL][Dab][Cha]V[Thr(3ξ)]C[Dab][Aun]-OH; thioether N-14),0.0182 µM
5,CC(=O)NCCCC[C@@H]1NC(=O)[C@H](Cc2ccc(-c3ccccc3)cc2)NC(=O)[C@H](C(C)C)NC(=O)[C@H](Cc2cccc(C)c2)NC(=O)[C@H](CC(=O)O)NC(=O)[C@H](Cc2ccc(OCC(=O)O)cc2)NC(=O)[C@H](CCCCNC(=N)N)NC(=O)CSC[C@@H](C(=O)N[C@@H](CCN)C(=O)NCCCCCCCCCCC(=O)O)NC(=O)[C@H](C(C)O)NC(=O)[C@H](C(C)C)NC(=O)[C@H](CC2CCCCC2)NC(=O)[C@H](CCN)NC(=O)[C@@H](CC(C)C)NC(=O)[C@H](CCCN)NC1=O (stereo partly drawn) [Compound 3580] ({CH2CO}-[hArg]Y(Carboxymethyl)D[Phe(3-Me)]V[Bip]K(Ac)[Orn][dL][Dab][Cha]V[Thr(3ξ)]C[Dab][Aun]-OH; thioether N-14),0.0168 µM
6,Cc1cccc(C[C@@H]2NC(=O)[C@H](CC(=O)O)NC(=O)[C@H](Cc3ccc(OCC(=O)O)cc3)NC(=O)[C@H](CCCCNC(=N)N)NC(=O)CSC[C@@H](C(=O)N[C@@H](CCN)C(=O)NCCCCCCCCCCC(=O)O)NC(=O)[C@H](C(C)O)NC(=O)[C@H](C(C)C)NC(=O)[C@H](CC3CCCCC3)NC(=O)[C@H](CCN)NC(=O)[C@@H](CC(C)C)NC(=O)[C@H](CCCN)NC(=O)[C@H](CCCNC(=O)C3CC3)NC(=O)[C@H](Cc3ccc(-c4ccccc4)cc3)NC(=O)[C@H](Cc3ccc(O)cc3)NC2=O)c1 (stereo partly drawn) [Compound 3581] ({CH2CO}-[hArg]Y(Carboxymethyl)D[Phe(3-Me)]Y[Bip][Orn](Cyclopropanecarbonyl)[Orn][dL][Dab][Cha]V[Thr(3ξ)]C[Dab][Aun]-OH; thioether N-14),0.0162 µM

# Other lines, results leading:
row,IC50,SMILES
1,0.071 µM,Cc1cccc(C[C@@H]2NC(=O)[C@H](CC(=O)O)NC(=O)[C@H](Cc3ccc(OCC(=O)O)cc3)NC(=O)[C@H](CCCCN(C)C)NC(=O)CSC[C@@H](C(=O)N[C@@H](CCCN)C(=O)N[C@@H](CO)C(=O)NCCCCCCCCCCCC(=O)O)NC(=O)[C@H](C(C)O)NC(=O)[C@H](CCO)NC(=O)[C@H](CC3CCCCC3)NC(=O)[C@H](CCN)NC(=O)[C@@H](CC(C)C)NC(=O)[C@H](CCCN)NC(=O)[C@H](CCCNC(N)=O)NC(=O)[C@H](Cc3ccc(-c4ccccc4)cc3)NC(=O)[C@H](C(C)C)NC2=O)c1 (stereo partly drawn) [Compound 3582] ({CH2CO}-[Lys(Me2)]Y(Carboxymethyl)D[Phe(3-Me)]V[Bip][Cit][Orn][dL][Dab][Cha][hSer][Thr(3ξ)]C[Orn]S[12Ado]-OH; thioether N-14)
2,0.0205 µM,Cc1cccc(C[C@@H]2NC(=O)[C@H](CC(=O)O)NC(=O)[C@H](Cc3ccc(OCC(=O)O)cc3)NC(=O)[C@H](CCCNC(=O)c3cnccn3)NC(=O)CSC[C@@H](C(=O)N[C@@H](CCCN)C(=O)N[C@@H](CO)C(=O)NCCCCCCCCCCCC(=O)O)NC(=O)[C@H](C(C)O)NC(=O)[C@H](CCO)NC(=O)[C@H](CC3CCCCC3)NC(=O)[C@H](CCN)NC(=O)[C@@H](CC(C)C)NC(=O)[C@H](CCCN)NC(=O)[C@H](CCCNC(N)=O)NC(=O)[C@H](Cc3ccc(-c4ccccc4)cc3)NC(=O)[C@H](C(C)C)NC2=O)c1 (stereo partly drawn) [Compound 3583] ({CH2CO}-[Orn](Pyrazinecarbonyl)Y(Carboxymethyl)D[Phe(3-Me)]V[Bip][Cit][Orn][dL][Dab][Cha][hSer][Thr(3ξ)]C[Orn]S[12Ado]-OH; thioether N-14)
3,0.0382 µM,Cc1cccc(C[C@@H]2NC(=O)[C@H](CC(=O)O)NC(=O)[C@H](Cc3ccc(OCC(=O)O)cc3)NC(=O)[C@H](Cc3ccncc3)NC(=O)CSC[C@@H](C(=O)N[C@@H](CCCN)C(=O)N[C@@H](CO)C(=O)NCCCCCCCCCCCC(=O)O)NC(=O)[C@H](C(C)O)NC(=O)[C@H](C(C)C)NC(=O)[C@H](CC3CCCCC3)NC(=O)[C@H](CCN)NC(=O)[C@@H](CC(C)C)NC(=O)[C@H](CCCN)NC(=O)[C@H](CCCNC(=O)C(C)(C)F)NC(=O)[C@H](Cc3ccc(-c4ccccc4)cc3)NC(=O)[C@H](Cc3ccc(O)cc3)NC2=O)c1 (stereo partly drawn) [Compound 3584] ({CH2CO}-[4Pal]Y(Carboxymethyl)D[Phe(3-Me)]Y[Bip][Orn](X11)[Orn][dL][Dab][Cha]V[Thr(3ξ)]C[Orn]S[12Ado]-OH; thioether N-14)
4,0.0308 µM,Cc1cccc(C[C@@H]2NC(=O)[C@H](CC(=O)O)NC(=O)[C@H](Cc3ccc(OCC(=O)O)cc3)NC(=O)[C@H](Cc3ccncc3)NC(=O)CSC[C@@H](C(=O)N[C@@H](CCCN)C(=O)N[C@@H](CO)C(=O)NCCCCCCCCCCCC(=O)O)NC(=O)[C@H](C(C)O)NC(=O)[C@H](C(C)C)NC(=O)[C@H](CC3CCCCC3)NC(=O)[C@H](CCN)NC(=O)[C@@H](CC(C)C)NC(=O)[C@H](CCCN)NC(=O)[C@H](CCCNC(N)=O)NC(=O)[C@H](Cc3ccc(-c4ccccc4)cc3)NC(=O)[C@H](C(C)C)NC2=O)c1 (stereo partly drawn) [Compound 3585] ({CH2CO}-[4Pal]Y(Carboxymethyl)D[Phe(3-Me)]V[Bip][Cit][Orn][dL][Dab][Cha]V[Thr(3ξ)]C[Orn]S[12Ado]-OH; thioether N-14)
5,0.0301 µM,Cc1cccc(C[C@@H]2NC(=O)[C@H](CC(=O)O)NC(=O)[C@H](Cc3ccc(OCC(=O)O)cc3)NC(=O)[C@H](CN)NC(=O)CSC[C@@H](C(=O)N[C@@H](CCCN)C(=O)N[C@@H](CO)C(=O)NCCCCCCCCCCCC(=O)O)NC(=O)[C@H](C(C)O)NC(=O)[C@H](C(C)C)NC(=O)[C@H](CC3CCCCC3)NC(=O)[C@H](CCN)NC(=O)[C@@H](CC(C)C)NC(=O)[C@H](CCCN)NC(=O)[C@H](CCCNC(N)=O)NC(=O)[C@H](Cc3ccc(-c4ccccc4)cc3)NC(=O)[C@H](Cc3ccc(O)cc3)NC2=O)c1 (stereo partly drawn) [Compound 3586] ({CH2CO}-[Dap]Y(Carboxymethyl)D[Phe(3-Me)]Y[Bip][Cit][Orn][dL][Dab][Cha]V[Thr(3ξ)]C[Orn]S[12Ado]-OH; thioether N-14)
6,0.0335 µM,Cc1cccc(C[C@@H]2NC(=O)[C@H](CC(=O)O)NC(=O)[C@H](Cc3ccc(OCC(=O)O)cc3)NC(=O)[C@H](CN)NC(=O)CSC[C@@H](C(=O)N[C@@H](CCCN)C(=O)N[C@@H](CO)C(=O)NCCCCCCCCCCCC(=O)O)NC(=O)[C@H](C(C)O)NC(=O)[C@H](CCO)NC(=O)[C@H](CC3CCCCC3)NC(=O)[C@H](CCN)NC(=O)[C@@H](CC(C)C)NC(=O)[C@H](CCCN)NC(=O)[C@H](CCCNC(N)=O)NC(=O)[C@H](Cc3ccc(-c4ccccc4)cc3)NC(=O)[C@H](C(C)C)NC2=O)c1 (stereo partly drawn) [Compound 3587] ({CH2CO}-[Dap]Y(Carboxymethyl)D[Phe(3-Me)]V[Bip][Cit][Orn][dL][Dab][Cha][hSer][Thr(3ξ)]C[Orn]S[12Ado]-OH; thioether N-14)
7,0.0167 µM,Cc1cccc(C[C@@H]2NC(=O)[C@H](CC(=O)O)NC(=O)[C@H](Cc3ccc(OCC(=O)O)cc3)NC(=O)[C@H](CN)NC(=O)CSC[C@@H](C(=O)N[C@@H](CCN)C(=O)N[C@@H](CO)C(=O)NCCCCCCCCCCCC(=O)O)NC(=O)[C@H](CCCN)NC(=O)[C@H](C(C)C)NC(=O)[C@H](CC3CCCCC3)NC(=O)[C@H](CCN)NC(=O)[C@@H](CC(C)C)NC(=O)[C@H](CCCN)NC(=O)[C@H](Cc3ccc(O)cc3)NC(=O)[C@H](Cc3ccc(-c4ccccc4)cc3)NC(=O)[C@H](C(C)C)NC2=O)c1 [Compound 3588] ({CH2CO}-[Dap]Y(Carboxymethyl)D[Phe(3-Me)]V[Bip]Y[Orn][dL][Dab][Cha]V[Orn]C[Dab]S[12Ado]-OH; thioether N-14)
